Experimental data: article PMC7112772 (Journal of Virological Methods, 2005)
Like-named read-outs stand apart in the source and are kept apart here.

Columns and labels:
TGEV = test: microbe, parasite or virus in culture; assay type: cell-based, strain purdue112 (porcine coronavirus); conditions: read-out: TGEV EC50
SARS-CoV [1] = conditions: for EC50: read-out: SARS-CoV EC50
in vitro [2] = conditions: African monkey
in vitro [3] = conditions: pig
SARS-CoV [4] = test: microbe, parasite or virus in culture; conditions: Severe acute respiratory syndrome coronavirus, 120 h, read-out: SARS-CoV EC50

| Molecule | EC50 (TGEV; Alphacoronavirus 1, 120 h) | SI SARS CC50/EC50 (SARS-CoV [1]) | CC50 (in vitro [2]) | CC50 (in vitro [3]) | EC50 (SARS-CoV [4]) | EC50 (TGEV) | EC50 (SARS-CoV [1]) | CC50 (VeroE6-EGFP cells) | CC50 (LLC-PK1-EGFP cells) |
| --- | --- | --- | --- | --- | --- | --- | --- | --- | --- |
| O=C(O)C1=CC(=C(c2ccc(O)c(C(=O)O)c2)c2ccc(O)c(C(=O)O)c2)C=CC1=O [ATA, aurintricarboxylic acid] | > 56.9 µM | <1.00 | 9.19 µM | 56.9 µM | > 9.19 µM | – | – | – | – |
| Cc1cn([C@H]2C[C@H](N=[N+]=[N-])[C@@H](CO)O2)c(=O)[nH]c1=O [AZT] | – | – | – | – | – | > 100 µM | > 100 µM | > 100 µM | > 100 µM |
| CC1(C)[C@@H](O[C@H]2O[C@H](C(=O)O)[C@@H](O)[C@H](O)[C@H]2O[C@@H]2O[C@H](C(=O)O)[C@@H](O)[C@H](O)[C@H]2O)CC[C@]2(C)[C@H]3C(=O)C=C4[C@@H]5C[C@@](C)(C(=O)O)CC[C@]5(C)CC[C@@]4(C)[C@]3(C)CC[C@@H]12 [Glycirrhizin] | > 100 µM | – | > 100 µM | > 100 µM | > 100 µM | – | – | – | – |
| NC(=O)c1ncn([C@@H]2O[C@H](CO)[C@@H](O)[C@H]2O)n1 [Ribavirin] | > 20.2 µM | – | > 100 µM | 20.2 µM | > 100 µM | – | – | – | – |
| Lopinavir/ritonavir | – | – | – | – | – | – | – | > 100 µM | > 100 µM |
| S-Nitroso-N-acetylpenicillamine | – | <1.00 | – | – | – | > 312 µM | > 530 µM | 530 µM | 312 µM |
| dextran sulfate 5000 [DS5000] | – | – | – | – | – | > 100 µM | > 100 µM | > 100 µM | > 100 µM |
